Laboratory results as given in US11622970B2, “BCL-2 inhibitors and their use as pharmaceuticals” (PRELUDE THERAPEUTICS INCORPORATED, priority 2020, dated 2023).

Biological target: BCL-2 recombinant protein (Homo sapiens, UniProt P10415)
Test: Cell free Bcl-2:Bak affinity assay (Bcl-2 Bak), HTRF competition of FAM-Bak peptide
Format: binding
Conditions: 4 nM BCL-2 recombinant protein, 100 nM FAM-Bak; for inhibition at 1 µM: 1 μM compound, read-out: potency (% inhibition at 1 μM); for IC50: 10-concentration IC50 mode, read-out: potency (IC50)
Procedure: Biological Assays: Cell Free Bcl-2:Bak Affinity Assay (Bcl-2 Bak)
The assay is based on the competition of fluorescently labeled peptide binding to BCL-2 and the binding is monitored by HTRF signals between anti-GST-Tb and FAM-peptide using GST-Tag BCL proteins. Testing compounds were dissolved in DMSO at 10 mM and tested in 10-concentration IC50 mode. The compounds of interest in DMSO were added in 3-fold serial dilution to each well containing 4 nM of BCL-2 recombinant protein, 20 mM K Phosphate, pH 7.5, 50 mM NaCl, 1 mM EDTA, 0.005% Triton X-100, by using acoustic technology (Labcyte echo 550), After 10 minutes incubation at room temperature, 100 nM of FAM-Bak was added and incubated for another 10 minutes before addition of Anti-GST-Tb. The plate was then sealed and further incubated at room temperature for 60 minutes in the dark before reading. Percentage of inhibition was calculated by % inhibition=100×(FDMSO−F)/(FDMSO−FPC), in which FDMSO is DMSO control and FPC is a positive control. IC50 values were determined from dose-response curve by fitting the percent inhibition against compound concentration using GraphPad Prism software.

Sequence of BCL-2 recombinant protein (P10415 whole entry): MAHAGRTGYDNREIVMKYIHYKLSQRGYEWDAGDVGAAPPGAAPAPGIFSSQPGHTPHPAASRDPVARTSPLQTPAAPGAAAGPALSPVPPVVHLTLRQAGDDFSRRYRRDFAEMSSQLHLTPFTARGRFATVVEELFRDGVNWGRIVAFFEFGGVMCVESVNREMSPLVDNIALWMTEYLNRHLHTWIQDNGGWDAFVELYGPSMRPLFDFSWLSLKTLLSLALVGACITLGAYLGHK

| SMILES | inhibition at 1 µM | IC50 |
| --- | --- | --- |
| Cc1nn(C)c(C)c1-c1nc(C(=O)NS(=O)(=O)c2ccc(N3CCN(CC4=C(c5ccc(Cl)cc5)CC(C)(C)CC4)CC3)cc2)ccc1F [Example 44, N-[4-[4-[[2-(4-chlorophenyl)-4,4-dimethylcyclohexen-1-yl]methyl]piperazin-1-yl]phenyl]sulfonyl-5-fluoro-6-(1,3,5-trimethylpyrazol-4-yl)pyridine-2-carboxamide] | 50 to 90% | – |
| CNc1c([N+](=O)[O-])cc(C(=O)NS(=O)(=O)c2ccc(N3CCN(CC4=C(c5ccc(Cl)cc5)CC(C)(C)CC4)CC3)cc2)c(Cl)c1C [Example 54, 2-chloro-N-[4-[4-[[2-(4-chlorophenyl)-4,4-dimethylcyclohexen-1-yl]methyl]piperazin-1-yl]phenyl]sulfonyl-4-(methylamino)-3-methyl-5-nitrobenzamide] | 50 to 90% | – |
| CC1(C)CCC(CN2CCN(c3ccc(S(=O)(=O)NC(=O)c4ccc5c(c4)CCCO5)c(Oc4cnc5[nH]ccc5c4)c3)CC2)=C(c2ccc(Cl)cc2)C1 [Example 74, N-[4-[4-[[2-(4-chlorophenyl)-4,4-dimethylcyclohexen-1-yl]methyl]piperazin-1-yl]-2-(1H-pyrrolo[2,3-b]pyridin-5-yloxy)phenyl]sulfonyl-3,4-dihydro-2H-chromene-6-carboxamide] | – | 100 to 1000 nM |
| COCc1cccc(C(=O)NS(=O)(=O)c2ccc(N3CCN(CC4=C(c5ccc(Cl)cc5)CC(C)(C)CC4)CC3)cc2)c1 [Example 18, N-([4-[4-[[2-(4-chlorophenyl)-4,4-dimethylcyclohexen-1-yl]methyl]piperazin-1-yl]phenyl]sulfonyl)-3-(methoxymethyl)benzamide] | 50 to 90% | – |
| CC1(C)CCC(CN2CCN(c3ccc(S(=O)(=O)NC(=O)c4ccc(NCC5CCOCC5)c([N+](=O)[O-])c4)c(Oc4cnc5[nH]ccc5c4)c3)CC2)=C(c2ccc(Cl)cc2)C1 [Example 100, N-[4-[4-[[2-(4-chlorophenyl)-4,4-dimethylcyclohexen-1-yl]methyl]piperazin-1-yl]-2-(1H-pyrrolo[2,3-b]pyridin-5-yloxy)phenyl]sulfonyl-3-nitro-4-(oxan-4-ylmethylamino)benzamide] | – | < 10 nM |
| CC1(C)CCC(CN2CCN(c3ccc(S(=O)(=O)NC(=O)c4cnc5sccc5c4)c(Oc4cnc5[nH]ccc5c4)c3)CC2)=C(c2ccc(Cl)cc2)C1 [Example 75, N-((2-((1H-pyrrolo[2,3-b]pyridin-5-yl)oxy)-4-(4-[[2-(4-Chlorophenyl)-4,4-dimethylcyclohexen-1-yl]methyl]piperazin-1-yl]phenyl)sulfonyl)thieno[2,3-b]pyridine-5-carboxamide] | – | 100 to 1000 nM |
| CC1(C)CCC(CN2CCN(c3ccc(S(=O)(=O)NC(=O)c4ccc(F)c(-c5cnc6c(c5)CC(=O)N6)n4)cc3)CC2)=C(c2ccc(Cl)cc2)C1 [Example 47, N-[4-[4-[[2-(4-chlorophenyl)-4,4-dimethylcyclohexen-1-yl]methyl]piperazin-1-yl]phenyl]sulfonyl-5-fluoro-6-(2-oxo-2,3-dihydro-1H-pyrrolo[2,3-b]pyridin-5-yl)pyridine-2-carboxamide] | 50 to 90% | – |
| Cc1cc([N+](=O)[O-])cc(C(=O)NS(=O)(=O)c2ccc(C3=CCN(CC4=C(c5ccc(Cl)cc5)CC(C)(C)CC4)CC3)cc2F)n1 [Example 65, N-[4-[1-[[2-(4-Chlorophenyl)-4,4-dimethylcyclohexen-1-yl]methyl]-3,6-dihydro-2H-pyridin-4-yl]-2-fluorophenyl]sulfonyl-6-methyl-4-nitropyridine-2-carboxamide] | – | < 10 nM |
| CC1(C)CCC(CN2CCN(c3ccc(S(=O)(=O)NC(=O)C45CC(C4)C5)cc3)CC2)=C(c2ccc(Cl)cc2)C1 [Example 7, N-([4-[4-[[2-(4-chlorophenyl)-4,4-dimethylcyclohexen-1-yl]methyl]piperazin-1-yl]phenyl]sulfonyl)bicyclo[1.1.1]pentane-1-carboxamide] | 50 to 90% | – |
| Cn1cc(-c2nc(C(=O)NS(=O)(=O)c3ccc(N4CCN(CC5=C(c6ccc(Cl)cc6)CC(C)(C)CC5)CC4)cc3)ccc2F)cn1 [Example 45, N-[4-[4-[[2-(4-chlorophenyl)-4,4-dimethylcyclohexen-1-yl]methyl]piperazin-1-yl]phenyl]sulfonyl-5-fluoro-6-(1-methyl-1H-pyrazol-4-yl)pyridine-2-carboxamide] | 50 to 90% | – |
| CCOc1c([N+](=O)[O-])cc(C(=O)NS(=O)(=O)c2ccc(N3CCN(CC4=C(c5ccc(Cl)cc5)CC(C)(C)CC4)CC3)cc2Oc2cnc3[nH]ccc3c2)c(Cl)c1C [Example 102, 2-chloro-N-[4-[4-[[2-(4-chlorophenyl)-4,4-dimethylcyclohexen-1-yl]methyl]piperazin-1-yl]-2-(1H-pyrrolo[2,3-b]pyridin-5-yloxy)phenyl]sulfonyl-4-ethoxy-3-methyl-5-nitrobenzamide] | – | 100 to 1000 nM |
| CC1(C)CCC(CN2CCN(c3ccc(S(=O)(=O)NC(=O)c4ccc(COc5ccc(Cl)cc5)c(S(C)(=O)=O)c4)c(Oc4cnc5[nH]ccc5c4)c3)CC2)=C(c2ccc(Cl)cc2)C1 [Example 89, 4-[(4-chlorophenoxy)methyl]-N-[4-[4-[[2-(4-chlorophenyl)-4,4-dimethylcyclohexen-1-yl]methyl]piperazin-1-yl]-2-(1H-pyrrolo[2,3-b]pyridin-5-yloxy)phenyl]sulfonyl-3-methylsulfonylbenzamide] | – | 100 to 1000 nM |
| Cn1cc(-c2nc(C(=O)NS(=O)(=O)c3ccc(N4CCN(CC5=C(c6ccc(Cl)cc6)CC(C)(C)CC5)CC4)cc3)ccc2F)ccc1=O [Example 58, N-[4-[4-[[2-(4-Chlorophenyl)-4,4-dimethylcyclohexen-1-yl]methyl]piperazin-1-yl]phenyl]sulfonyl-3-fluoro-1′-methyl-6′-oxo-1′,6′-dihydro-[2,3′-bipyridine]-6-carboxamide] | 50 to 90% | – |

Further lines, results first:

| inhibition at 1 µM | IC50 | SMILES |
| --- | --- | --- |
| 50 to 90% | – | Cc1c(C(=O)NS(=O)(=O)c2ccc(N3CCN(CC4=C(c5ccc(Cl)cc5)CC(C)(C)CC4)CC3)cc2)nnn1Cc1ccccc1 [Example 4, 1-benzyl-N-[4-[4-[[2-(4-chlorophenyl)-4,4-dimethylcyclohexen-1-yl]methyl]piperazin-1-yl]phenyl]sulfonyl-5-methyl-1H-1,2,3-triazole-4-carboxamide] |
| 50 to 90% | – | CC1(C)CCC(CN2CCN(c3ccc(S(=O)(=O)NC(=O)c4cccc(Cl)c4)cc3)CC2)=C(c2ccc(Cl)cc2)C1 [Example 15, 3-chloro-N-([4-[4-[[2-(4-chlorophenyl)-4,4-dimethylcyclohexen-1-yl]methyl]piperazin-1-yl]phenyl]sulfonyl)benzamide] |
| 50 to 90% | – | CC1(C)CCC(CN2CCN(c3ccc(S(=O)(=O)NC(=O)c4ccc(OCc5ccccc5)c([N+](=O)[O-])c4)cc3)CC2)=C(c2ccc(Cl)cc2)C1 [Example 36, 4-(benzyloxy)-N-([4-[4-[[2-(4-chlorophenyl)-4,4-dimethylcyclohexen-1-yl]methyl]piperazin-1-yl]phenyl]sulfonyl)-3-nitrobenzamide] |
| – | < 10 nM | Cc1c(Cl)c(C(=O)NS(=O)(=O)c2ccc(N3CCN(CC4=C(c5ccc(Cl)cc5)CC(C)(C)CC4)CC3)cc2Oc2cnc3[nH]ccc3c2)cc([N+](=O)[O-])c1OCC1CCOC1 (stereo not drawn) [Example 106, 2-chloro-N-[4-[4-[[2-(4-chlorophenyl)-4,4-dimethylcyclohexen-1-yl]methyl]piperazin-1-yl]-2-(1H-pyrrolo[2,3-b]pyridin-5-yloxy)phenyl]sulfonyl-3-methyl-5-nitro-4-(oxolan-3-ylmethoxy)benzamide] |
| 50 to 90% | – | CC1(C)CCC(CN2CCN(c3ccc(S(=O)(=O)NC(=O)c4ccc(F)c(Cl)n4)cc3)CC2)=C(c2ccc(Cl)cc2)C1 [Example 1, 6-Chloro-N-[4-[4-[[2-(4-chlorophenyl)-4,4-dimethylcyclohexen-1-yl]methyl]piperazin-1-yl]phenyl]sulfonyl-5-fluoropyridine-2-carboxamide] |
| 50 to 90% | – | CC1(C)CCC(CN2CCN(c3ccc(S(=O)(=O)NC(=O)c4cnc5ccccc5c4)cc3)CC2)=C(c2ccc(Cl)cc2)C1 [Example 9, N-((4-(4-((4′-chloro-5,5-dimethyl-3,4,5,6-tetrahydro-[1,1′-biphenyl]-2-yl)methyl)piperazin-1-yl)phenyl)sulfonyl)quinoline-3-carboxamide] |
| < 50% | – | CC1(C)CCC(CN2CCN(c3ccc(S(=O)(=O)NC(=O)C4(c5ccc([N+](=O)[O-])cc5)CC4)cc3)CC2)=C(c2ccc(Cl)cc2)C1 [Example 29, N-([4-[4-[[2-(4-chlorophenyl)-4,4-dimethylcyclohexen-1-yl]methyl]piperazin-1-yl]phenyl]sulfonyl)-1-(4-nitrophenyl)cyclopropane-1-carboxamide] |
| 50 to 90% | – | CC1(C)CCC(CN2CCN(c3ccc(S(=O)(=O)NC(=O)c4ccc(F)c(-c5cn[nH]c5)n4)cc3)CC2)=C(c2ccc(Cl)cc2)C1 [Example 59, N-[4-[4-[[2-(4-Chlorophenyl)-4,4-dimethylcyclohexen-1-yl]methyl]piperazin-1-yl]phenyl]sulfonyl-5-fluoro-6-(1H-pyrazol-4-yl)pyridine-2-carboxamide] |
